Data on five molecules can be found in BindingDB's records for doi:10.1021/jm010066k (The University of Newcastle, 2002).

Numbered stars: 1 amine (or outer) side, 2 acyl side, 3 side chain; on linkers, the order of the positions; unused ones are H or OH. Bridge positions count the residues as written; N and C are the ends. Square brackets hold non-standard residues; d marks the D form. Peptide text beside a SMILES is read from it. Adda = CO[C@@H](Cc1ccccc1)[C@@H](C)/C=C(C)/C=C/[C@H](N[*:1])[C@H](C)C(=O)[*:2]; X1 = CC(C)C[C@H](N[*:1])C(=O)C[C@@H](C(=O)O)[C@H](C)C(=O)[*:2]; NMeDha = C=C(NC)C(=O)O

A short description of the assay: Inhibition of microcystin analogues to catalytic subunits of Serine/threonine protein phosphatase 2A (PP2Ac).
Take `CO[C@@H](Cc1ccccc1)[C@@H](C)/C=C(C)/C=C/[C@@H]1NC(=O)[C@H](C)NC(=O)[C@@H](C)[C@H](C(=O)O)CC(=O)[C@H](CC(C)C)NC(=O)[C@@H](C)NC(=O)CN(C)C(=O)CC[C@H](C(=O)O)NC(=O)[C@H]1C` [25-Isobutyl-15-(6-methoxy-3,5-dimethyl-7-phenyl-hepta-1,3-dienyl)-3,7,14,18,21-pentamethyl-2,5,8,13,17,20,24-heptaoxo-1,4,7,12,16,19hexaaza-cyclopentacosane-11,22-dicarboxylic acid]: it took 1.5 nM to reach half-maximal inhibition (IC50).

In turn, `C=C1C(=O)N[C@H](CN)C(=O)N[C@@H](CC(C)C)C(=O)C[C@@H](C(=O)O)[C@H](C)C(=O)N[C@@H](C)C(=O)N[C@@H](/C=C/C(C)=C/[C@H](C)[C@H](Cc2ccccc2)OC)[C@H](C)C(=O)N[C@@H](C(=O)O)CCC(=O)N1C` [11,22-Dicarboxy-25-isobutyl-15-(6-methoxy-3,5-dimethyl-7-phenyl-hepta-1,3-dienyl)-7,14,18,21-tetramethyl-6-methylene-2,5,8,13,17,20,24-heptaoxo-1,4,7,12,16,19hexaaza-cyclopentacos-3-ylmethyl-ammonium] registered an IC50 of 9 nM.

In turn, `C=C1C(=O)N[C@H](C)C(=O)N[C@@H](CC(C)C)C(=O)C[C@@H](C(=O)O)[C@H](C)C(=O)N[C@@H](C)C(=O)N[C@@H](/C=C/C(C)=C/[C@H](C)[C@H](Cc2ccccc2)OC)[C@H](C)C(=O)N[C@@H](C(=O)O)CCC(=O)N1C` [25-Isobutyl-15-(6-methoxy-3,5-dimethyl-7-phenyl-hepta-1,3-dienyl)-3,7,14,18,21-pentamethyl-6-methylene-2,5,8,13,17,20,24-heptaoxo-1,4,7,12,16,19hexaaza-cyclopentacosane-11,22-dicarboxylic acid] ([NMeDha][dA][X1]A[Adda][dE]-OH; lactam N-6) gave an IC50 of 0.3 nM.

`C=C1C(=O)N[C@H](C)C(=O)N[C@@H](CC2CCCCC2)C(=O)C[C@@H](C(=O)O)[C@H](C)C(=O)N[C@@H](C)C(=O)N[C@@H](/C=C/C(C)=C/[C@H](C)[C@H](Cc2ccccc2)OC)[C@H](C)C(=O)N[C@@H](C(=O)O)CCC(=O)N1C` [25-Cyclohexylmethyl-15-(6-methoxy-3,5-dimethyl-7-phenyl-hepta-1,3-dienyl)-3,7,14,18,21-pentamethyl-6-methylene-2,5,8,13,17,20,24-heptaoxo-1,4,7,12,16,19hexaaza-cyclopentacosane-11,22-dicarboxylic acid] came in with a concentration for half-maximal inhibition (IC50) of 3.4 nM.

For `CO[C@@H](Cc1ccccc1)[C@@H](C)/C=C(C)/C=C/[C@@H]1NC(=O)[C@H](C)NC(=O)[C@@H](C)[C@H](C(=O)O)CC(=O)[C@H](CC(C)C)NC(=O)[C@@H](C)NC(=O)CN(C2CCCCC2)C(=O)CC[C@H](C(=O)O)NC(=O)[C@H]1C` [7-Cyclohexyl-25-isobutyl-15-(6-methoxy-3,5-dimethyl-7-phenyl-hepta-1,3-dienyl)-3,14,18,21-tetramethyl-2,5,8,13,17,20,24-heptaoxo-1,4,7,12,16,19hexaaza-cyclopentacosane-11,22-dicarboxylic acid], the IC50 stood at 1.5 nM.

Broadly, the IC50 is the concentration at which inhibition is half-maximal.
